“Also recorded” adds a separate entry of the source. Like-named read-outs stand apart in the source and are kept apart here.
Assays:
[1] = BCS classification based on experimental Papp (AB direction, free formulation); type: in vitro ADME; parameters: dose or concentration left out as unconfirmed; settings: human, Caco-2, pH 7.4, versus metoprolol Papp, Table 2, read-out: Permeability Based on Papp
Source text: The Biopharmaceutical Classification System (BCS) was developed by Amidon and coworkers twenty years ago to classify drugs for a waiver of in vivo bioequivalence studies. This system classifies drugs into four categories based on their intestinal permeability and solubility (see S1 Table), and currently this system is accepted worldwide by researchers and governmental institutions such as the FDA and EMA. In addition to its regulatory use, BCS is a tool for drug development because it helps identify the limiting factors in the absorption process. In this work, the 24 compounds identified from RE were classified individually according to this system to obtain relevant information regarding their absorbed oral fraction. For this purpose, only data derived from the free extract permeation were used.
Log P values were obtained for all compounds using ChemDraw software® Ultra version 8.0 (CambridgeSoft Corp. USA) and are shown in Table 2. The Log P value is a widely accepted parameter to express the lipophilicities of biological drugs in medicinal and agro chemistry. According to BCS, compounds are divided into high permeability (Class I: high permeability, high solubility; Class II: high permeability, low solubility) or low permeability (Class III: low permeability, high solubility; Class IV: low permeability, low solubility) categories by comparing with the Log P value (2.18) of the standard metoprolol, which is the reference compound employed for this purpose. Based on this parameter, the permeabilities of all compounds derived from RE were tabulated as high or low (Table 2). Moreover, the Papp value of this reference drug (0.6 x 10^−4 cm/s) was also available, which allowed us to establish another classification for the permeabilities of RE compounds based on this parameter, using the Papp values of the compounds obtained in the AB direction only for the free formulations (Table 2). Therefore, the Log P and Papp values were used in Table 2 to classify compounds as […] drugs for permeability, providing two different classifications based on the partition coefficient and the intestinal permeability.
As no information was available regarding the maximum doses of these compounds, two putative scenarios were selected to simulate a high-activity drug, dosed as a 10-mg tablet, or a low-activity drug, dosed as a 100-mg tablet. […] In the present study, all compounds were classified for BCS by considering the experimental data for absorption (Papp) and the calculated Log P value (Table 2). According to the Log P value, most compounds belong to the high-permeability classes (I and II), with class II being the most numerous (Fig 2A), except in the case of the flavonoids. However, when experimental Papp values were used for classification, the results changed dramatically, and low-permeability classes (III and IV) became the most abundant (Fig 2B). This classification was nearly independent of the solubility scenario and considered dose (compare Fig 2 and S1 Fig). […] Most flavones in RE were classified as class III (low permeability, high solubility) and class IV (low permeability, low solubility) with the exception of apigenin, for which no experimental Papp could be determined and, consequently, no BCS classification was proposed. […] The phenylpropanoid derivatives shogaol and shogaol isomer (gingerol-like compounds) were classified as class II (high permeability, low solubility), which is in agreement with the presence of a long saturated carbon chain in their structure that confers a certain degree of hydrophobicity to these compounds.

[2] = Caco-2 monolayer transport study (apparent permeability, Papp) of rosemary extract compounds; settings: human, Caco-2, pH 7.4
Caco-2 cell monolayers [3] = experiment: as above; settings: for Papp, Encapsulated RE, AB direction: liposomal RE formulation; for Papp, Encapsulated RE, AB direction / Papp, Non encapsulated RE, AB direction: apical to basolateral; for retention by Caco-2 cells: free formulation, AB direction
Caco-2 cell monolayers [4] = tested on: Caco-2 cell monolayers
in vitro = settings: human, Caco-2, pH 7.4
Caco-2 cell monolayers [5] = tested on: Caco-2 cell monolayers; parameters: method as in printed; settings: reference for BCS permeability class; stated as available, ref not given; cited from earlier work
[6] = 120 min, 37°C, mean of six replicates
[7] = free RE 200 μg/mL, 120 min, 37°C, mean of six replicates

Compound | Papp at 120 min [1] | Papp A→B at 120 min, 200 μg/mL [2] | Papp B→A at 120 min, 200 μg/mL [2] | other results
COc1c(C(C)C)cc2c(c1O)[C@@]1(C(=O)O)CCCC(C)(C)[C@@H]1CC2 [12-Methoxycarnosic acid] | < 60 ×10⁻⁶ cm/s | 18.5 ×10⁻⁶ cm/s | 27.7 ×10⁻⁶ cm/s | Papp, Encapsulated RE, AB direction (Caco-2 cell monolayers [3]; [6]): no absorption
C=C(C)[C@@H]1CC[C@]2(C(=O)O)CC[C@]3(C)[C@H](CC[C@@H]4[C@@]5(C)CC[C@H](O)[C@@](C)(CO)[C@@H]5CC[C@]43C)[C@@H]12 [Anemosapogenin] | < 60 ×10⁻⁶ cm/s | 3.27 ×10⁻⁶ cm/s | 6.17 ×10⁻⁶ cm/s | –
CC1(C)CC[C@]2(C(=O)O)CC[C@]3(C)C(=CC[C@@H]4[C@@]5(C)C[C@H](O)[C@H](O)C(C)(C)[C@@H]5CC[C@]43C)[C@@H]2C1 [Augustic acid] | < 60 ×10⁻⁶ cm/s | 7.35 ×10⁻⁶ cm/s | 7.93 ×10⁻⁶ cm/s | –
CC1CCC2(C(=O)O)CCC3(C)C(=CCC4C5(C)CCC(O)C(C)(C)C5CCC43C)C2C1(C)O (centres unmarked) [Benthamic acid] | < 60 ×10⁻⁶ cm/s | 5.2 ×10⁻⁶ cm/s | 7.03 ×10⁻⁶ cm/s | –
C=C(C)[C@@H]1CC[C@]2(C(=O)O)CC[C@]3(C)[C@H](CC[C@@H]4[C@@]5(C)CC[C@H](O)C(C)(C)[C@@H]5CC[C@]43C)[C@@H]12 [Betulinic acid] | – | – | 6.3 ×10⁻⁶ cm/s | detection in donor chamber, cells and receptor chamber (Caco-2 cell monolayers [3]; encapsulated formulation): detected both in the donor chamber and also inside the cells but was not detected in the receptor chamber; Papp, Non encapsulated RE, AB direction (Caco-2 cell monolayers [3]; [7]): not absorbed; retention by Caco-2 cells (Caco-2 cell monolayers [3]): partly retained by the Caco-2 cells
CC(C)c1cc2c(c(O)c1O)[C@@]1(C(=O)O)CCCC(C)(C)[C@@H]1CC2 [Carnosic acid] | – | 127 ×10⁻⁶ cm/s | 90.4 ×10⁻⁶ cm/s | Papp, Encapsulated RE, AB direction (Caco-2 cell monolayers [3]; [6]): no absorption
CC(C)c1cc2c(c(O)c1O)[C@@]13CCCC(C)(C)[C@@H]1C[C@@H]2OC3=O [Carnosol] | < 60 ×10⁻⁶ cm/s | 14.6 ×10⁻⁶ cm/s | 13.5 ×10⁻⁶ cm/s | Papp A→B at 120 min [2]: 0.0403 ×10⁻⁶ cm/s; Papp B→A at 120 min [2]: 0.261 ×10⁻⁶ cm/s
COc1cc2oc(-c3ccc(O)cc3)cc(=O)c2c(O)c1OC [Cirsimaritin] | < 60 ×10⁻⁶ cm/s | 33.3 ×10⁻⁶ cm/s | 30.7 ×10⁻⁶ cm/s | –
COc1ccc(-c2cc(=O)c3c(O)cc(O)cc3o2)cc1O [Diosmetin] | < 60 ×10⁻⁶ cm/s | 2.5 ×10⁻⁶ cm/s | 4.13 ×10⁻⁶ cm/s | –
CC(C)c1cc2c(cc1O)[C@@]1(C)CCC(=O)C(C)(C)[C@@H]1CC2 [Hinokione] | – | – | – | Papp, Encapsulated RE, AB direction (Caco-2 cell monolayers [4]): no absorption; Papp, Non encapsulated RE, AB direction (Caco-2 cell monolayers [4]): no absorption; Papp B→A at 120 min, 200 μg/mL (in vitro): 13.6 ×10⁻⁶ cm/s
COc1c(O)cc2oc(-c3ccc(O)cc3)cc(=O)c2c1O [Hispidulin] | < 60 ×10⁻⁶ cm/s | 9.05 ×10⁻⁶ cm/s | 13.1 ×10⁻⁶ cm/s | –
COCCc1ccc(OCC(O)CNC(C)C)cc1 (centres unmarked) [metoprolol] | – | – | – | Papp value of the reference drug (Caco-2 cell monolayers [5]): 60 ×10⁻⁶ cm/s
(9)-Shogaol [[9]-Shogaol] | – | – | – | retention by Caco-2 cells / transport to the receptor chamber (Caco-2 cell monolayers [3]; all samples, amounts below LOQ detected in cytoplasmic fractions): partly retained by Caco-2 cells without any transport to the receptor chamber

Now from value to compound, other results behind:

Papp at 120 min [1] | Papp A→B at 120 min, 200 μg/mL [2] | Papp B→A at 120 min, 200 μg/mL [2] | Compound | other results
> 60 ×10⁻⁶ cm/s | 104 ×10⁻⁶ cm/s | 9.23 ×10⁻⁶ cm/s | CC(C)c1cc2c(c(O)c1O)[C@@]13CCCC(C)(C)[C@@H]1[C@H](O)[C@@H]2OC3=O [Epiisorosmanol] | Papp A→B at 120 min [2]: 8.18 ×10⁻⁶ cm/s; Papp B→A at 120 min [2]: 13 ×10⁻⁶ cm/s
< 60 ×10⁻⁶ cm/s | 55.1 ×10⁻⁶ cm/s | 12.1 ×10⁻⁶ cm/s | CC(C)c1cc2c(c(O)c1O)C13CCCC(C)(C)C1C(OC3=O)C2O (centres unmarked) [Epirosmanol] | Papp A→B at 120 min [2]: 1.92 ×10⁻⁶ cm/s; Papp B→A at 120 min [2]: 2.63 ×10⁻⁶ cm/s
< 60 ×10⁻⁶ cm/s | 14.9 ×10⁻⁶ cm/s | 16.2 ×10⁻⁶ cm/s | COc1cc(O)c2c(=O)cc(-c3ccc(O)cc3)oc2c1 [Genkwanin] | –
< 60 ×10⁻⁶ cm/s | 7.2 ×10⁻⁶ cm/s | 2.45 ×10⁻⁶ cm/s | C=C1CCC2(C(=O)O)CCC3(C)C(=CCC4C5(C)CCC(O)C(C)(C)C5CCC43C)C2C1C (centres unmarked) [Micromeric acid] | –
< 60 ×10⁻⁶ cm/s | 17.6 ×10⁻⁶ cm/s | – | Cc1cc2c(cc(O)c1=O)[C@@]13CCCC(C)(C)[C@@H]1C[C@@H]2OC3 [Miltipolone] | Papp B→A at 120 min [2]: 0.168 ×10⁻⁶ cm/s; Papp, Non encapsulated RE, BA direction (Caco-2 cell monolayers [3]; free RE 200 μg/mL, basolateral to apical, 120 min, 37°C, mean of six replicates): not absorbed; also recorded: no absorption; Papp, Encapsulated RE, AB direction (Caco-2 cell monolayers [3]; [6]): no absorption
< 60 ×10⁻⁶ cm/s | 19 ×10⁻⁶ cm/s | 15.9 ×10⁻⁶ cm/s | CC(C)c1cc(C=O)c2c(c1O)OC(=O)[C@@]21CCCC(C)(C)[C@@H]1C=O [Rosmadial] | Papp A→B at 120 min [2]: 2.67 ×10⁻⁶ cm/s; Papp B→A at 120 min [2]: 12.4 ×10⁻⁶ cm/s
< 60 ×10⁻⁶ cm/s | 45.9 ×10⁻⁶ cm/s | 44.2 ×10⁻⁶ cm/s | CC(C)c1cc2c(c(O)c1O)[C@@]13CCCC(C)(C)[C@@H]1[C@H](OC3=O)[C@H]2O [Rosmanol] | Papp A→B at 120 min [2]: 29.1 ×10⁻⁶ cm/s; Papp B→A at 120 min [2]: 33.3 ×10⁻⁶ cm/s
< 60 ×10⁻⁶ cm/s | 2.43 ×10⁻⁶ cm/s | 2.68 ×10⁻⁶ cm/s | CC(C)c1cc2c(c(O)c1O)C(=O)C1CCCC(C)(C)C1CC2 (centres unmarked) [Rosmaridiphenol] | Papp, Non encapsulated RE, AB direction (Caco-2 cell monolayers [3]; [7]): E-06 range; Papp, Encapsulated RE, AB direction (Caco-2 cell monolayers [3]; [6]): no absorption
– | – | 7.2 ×10⁻⁶ cm/s | C[C@H]1[C@H](C)CC[C@]2(C(=O)O)CC[C@]3(C)C(=CC[C@@H]4[C@@]5(C)CC[C@H](O)C(C)(C)[C@@H]5CC[C@]43C)[C@H]12 [Ursolic acid] | retention by Caco-2 cells (Caco-2 cell monolayers [3]): partly retained by the Caco-2 cells
